From ChEMBL document CHEMBL5696442, “Discovery of type II inhibitors of TGFβ-activated kinase 1 (TAK1) and mitogen-activated protein kinase kinase kinase kinase 2 (MAP4K2)” (J Med Chem, 2015)

What was measured:
Type in all cases: cell-based
[1] = target: Tyrosine-protein kinase JAK1 (Homo sapiens) (UniProt P23458); assay: Inhibition of JAK1 domain2 ACT labeling site in human A-375 cells at 5 uM by KiNativ Profiling analysis relative to control
[2] = target: T1, Mitogen-activated protein kinase kinase kinase 2 (Homo sapiens) (UniProt Q9Y2U5); assay: Inhibition of MAP3K2 Lys2 labeling site in human A-375 cells at 5 uM by KiNativ Profiling analysis relative to control
T1 sequence (whole entry): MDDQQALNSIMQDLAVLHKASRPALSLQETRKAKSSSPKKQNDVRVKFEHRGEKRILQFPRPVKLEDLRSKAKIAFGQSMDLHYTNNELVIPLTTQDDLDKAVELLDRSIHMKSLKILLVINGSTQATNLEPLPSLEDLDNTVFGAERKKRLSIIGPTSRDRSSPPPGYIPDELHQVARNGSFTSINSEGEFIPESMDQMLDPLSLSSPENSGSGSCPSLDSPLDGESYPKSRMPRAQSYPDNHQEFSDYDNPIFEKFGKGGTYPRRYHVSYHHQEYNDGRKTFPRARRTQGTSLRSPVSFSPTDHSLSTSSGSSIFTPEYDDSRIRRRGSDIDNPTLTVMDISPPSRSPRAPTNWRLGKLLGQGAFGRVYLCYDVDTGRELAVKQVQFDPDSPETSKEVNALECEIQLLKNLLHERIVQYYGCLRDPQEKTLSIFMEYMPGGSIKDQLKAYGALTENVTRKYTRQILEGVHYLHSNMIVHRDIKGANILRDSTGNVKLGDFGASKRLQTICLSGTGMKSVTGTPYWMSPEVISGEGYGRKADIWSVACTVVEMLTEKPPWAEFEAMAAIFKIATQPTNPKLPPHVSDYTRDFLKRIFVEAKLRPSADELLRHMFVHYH

[3] = target: T2, Serine/threonine-protein kinase 3 (Homo sapiens) (UniProt Q13188); assay: Inhibition of MST2 Lys2 labeling site harbouring DIKAGNILLNTEGHAK in human A-375 cells at 5 uM by KiNativ Profiling analysis relative to control
T2 sequence (whole entry): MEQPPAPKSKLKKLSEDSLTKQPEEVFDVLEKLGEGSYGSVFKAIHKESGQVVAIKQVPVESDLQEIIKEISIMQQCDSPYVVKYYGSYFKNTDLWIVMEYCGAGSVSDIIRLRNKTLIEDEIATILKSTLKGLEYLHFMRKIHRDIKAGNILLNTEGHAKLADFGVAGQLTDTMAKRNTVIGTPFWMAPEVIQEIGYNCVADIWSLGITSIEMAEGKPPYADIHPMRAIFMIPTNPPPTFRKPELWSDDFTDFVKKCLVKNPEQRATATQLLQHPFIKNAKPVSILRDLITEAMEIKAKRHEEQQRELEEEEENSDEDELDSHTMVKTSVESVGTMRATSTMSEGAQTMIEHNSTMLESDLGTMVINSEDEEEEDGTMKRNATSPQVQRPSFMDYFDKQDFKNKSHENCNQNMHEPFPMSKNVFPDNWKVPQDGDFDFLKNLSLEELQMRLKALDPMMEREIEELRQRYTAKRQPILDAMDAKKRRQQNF

[4] = target: T3, Serine/threonine-protein kinase LATS2 (Homo sapiens) (UniProt Q9NRM7); assay: Inhibition of LATS2 Lys2 labeling site in human A-375 cells at 0.5 uM by KiNativ Profiling analysis relative to control
T3 sequence (whole entry): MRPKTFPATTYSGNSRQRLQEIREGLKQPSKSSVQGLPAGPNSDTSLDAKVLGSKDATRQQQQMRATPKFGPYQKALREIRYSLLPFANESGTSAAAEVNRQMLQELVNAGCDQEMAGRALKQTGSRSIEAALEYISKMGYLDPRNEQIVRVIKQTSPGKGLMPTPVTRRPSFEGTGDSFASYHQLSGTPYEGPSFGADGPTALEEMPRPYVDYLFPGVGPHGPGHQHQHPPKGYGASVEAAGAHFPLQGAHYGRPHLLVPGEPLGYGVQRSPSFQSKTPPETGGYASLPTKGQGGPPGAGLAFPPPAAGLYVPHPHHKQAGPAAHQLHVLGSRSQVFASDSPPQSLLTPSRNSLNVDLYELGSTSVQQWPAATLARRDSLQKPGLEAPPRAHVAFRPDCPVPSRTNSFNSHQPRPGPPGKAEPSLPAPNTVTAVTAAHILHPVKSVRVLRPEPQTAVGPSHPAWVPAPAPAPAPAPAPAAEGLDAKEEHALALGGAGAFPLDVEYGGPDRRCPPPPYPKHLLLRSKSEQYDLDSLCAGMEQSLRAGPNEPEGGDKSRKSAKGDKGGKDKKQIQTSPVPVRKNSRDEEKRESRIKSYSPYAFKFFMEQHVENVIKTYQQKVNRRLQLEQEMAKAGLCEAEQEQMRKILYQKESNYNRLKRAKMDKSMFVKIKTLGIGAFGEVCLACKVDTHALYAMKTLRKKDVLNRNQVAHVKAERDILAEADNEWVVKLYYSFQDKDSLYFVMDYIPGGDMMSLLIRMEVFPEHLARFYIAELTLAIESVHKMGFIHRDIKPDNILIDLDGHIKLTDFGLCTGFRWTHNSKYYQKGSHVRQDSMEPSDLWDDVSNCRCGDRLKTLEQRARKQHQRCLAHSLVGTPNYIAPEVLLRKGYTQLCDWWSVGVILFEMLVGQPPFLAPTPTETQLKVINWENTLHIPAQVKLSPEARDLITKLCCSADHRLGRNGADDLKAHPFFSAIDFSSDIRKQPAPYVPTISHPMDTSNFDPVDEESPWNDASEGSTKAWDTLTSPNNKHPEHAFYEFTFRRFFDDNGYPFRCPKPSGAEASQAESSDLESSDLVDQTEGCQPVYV

[5] = target: T2, Serine/threonine-protein kinase 3 (Homo sapiens); assay: Inhibition of MST2 Lys2 labeling site harbouring DIKAGNILLNTEGHAK in human A-375 cells at 0.5 uM by KiNativ Profiling analysis relative to control
[6] = target: T3, Serine/threonine-protein kinase LATS2 (Homo sapiens); assay: Inhibition of LATS2 Lys2 labeling site in human A-375 cells at 0.05 uM by KiNativ Profiling analysis relative to control
[7] = target: RAF proto-oncogene serine/threonine-protein kinase (Homo sapiens, UniProt P04049); assay: Inhibition of RAF1 Lys2 labeling site in human A-375 cells at 0.05 uM by KiNativ Profiling analysis relative to control
Sequence of RAF proto-oncogene serine/threonine-protein kinase (P04049 whole entry, the tested form may be a part): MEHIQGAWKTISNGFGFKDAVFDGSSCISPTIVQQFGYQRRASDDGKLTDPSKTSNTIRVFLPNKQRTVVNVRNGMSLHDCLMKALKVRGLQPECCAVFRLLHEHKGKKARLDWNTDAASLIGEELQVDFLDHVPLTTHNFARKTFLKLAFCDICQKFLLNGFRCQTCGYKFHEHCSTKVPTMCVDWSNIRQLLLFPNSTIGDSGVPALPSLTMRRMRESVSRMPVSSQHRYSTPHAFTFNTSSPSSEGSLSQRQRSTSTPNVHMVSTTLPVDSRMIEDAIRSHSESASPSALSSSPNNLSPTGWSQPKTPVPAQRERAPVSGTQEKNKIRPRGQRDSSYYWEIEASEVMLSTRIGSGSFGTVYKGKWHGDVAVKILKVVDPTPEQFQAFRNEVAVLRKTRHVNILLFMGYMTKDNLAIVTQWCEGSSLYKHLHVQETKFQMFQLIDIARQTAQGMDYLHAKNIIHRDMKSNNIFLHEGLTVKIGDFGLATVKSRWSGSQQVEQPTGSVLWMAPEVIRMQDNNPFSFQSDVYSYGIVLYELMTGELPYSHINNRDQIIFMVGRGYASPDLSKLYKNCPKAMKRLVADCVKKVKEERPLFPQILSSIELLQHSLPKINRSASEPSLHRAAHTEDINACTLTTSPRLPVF

[8] = target: Ribosomal protein S6 kinase alpha-3 (Homo sapiens) (UniProt P51812); assay: Inhibition of RSK2 domain2 Protein Kinase Domain in human A-375 cells at 0.05 uM by KiNativ Profiling analysis relative to control
Sequence of Ribosomal protein S6 kinase alpha-3 (Homo sapiens) (P51812 whole entry, the tested form may be a part): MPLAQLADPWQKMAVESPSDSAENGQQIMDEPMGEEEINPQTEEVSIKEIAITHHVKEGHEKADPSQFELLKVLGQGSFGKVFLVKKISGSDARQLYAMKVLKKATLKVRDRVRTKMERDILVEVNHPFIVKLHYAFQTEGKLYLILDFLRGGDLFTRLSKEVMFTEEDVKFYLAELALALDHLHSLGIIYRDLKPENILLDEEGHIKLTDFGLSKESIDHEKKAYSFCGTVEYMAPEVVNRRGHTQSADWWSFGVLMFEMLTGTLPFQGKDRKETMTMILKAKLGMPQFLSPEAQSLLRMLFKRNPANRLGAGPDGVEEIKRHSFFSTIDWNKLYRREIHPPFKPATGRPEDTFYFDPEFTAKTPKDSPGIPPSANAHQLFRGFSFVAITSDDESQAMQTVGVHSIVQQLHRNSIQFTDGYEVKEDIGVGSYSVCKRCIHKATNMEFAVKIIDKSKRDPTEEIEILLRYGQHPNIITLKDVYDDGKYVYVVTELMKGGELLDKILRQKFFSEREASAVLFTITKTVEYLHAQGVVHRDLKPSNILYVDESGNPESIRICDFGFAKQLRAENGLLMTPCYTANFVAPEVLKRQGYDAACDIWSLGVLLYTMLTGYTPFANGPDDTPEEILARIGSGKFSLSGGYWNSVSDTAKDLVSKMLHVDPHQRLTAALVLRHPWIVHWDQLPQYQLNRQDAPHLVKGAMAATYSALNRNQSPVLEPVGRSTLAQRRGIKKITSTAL

Sequence of Tyrosine-protein kinase JAK1 (Homo sapiens) (P23458 whole entry, the tested form may be a part): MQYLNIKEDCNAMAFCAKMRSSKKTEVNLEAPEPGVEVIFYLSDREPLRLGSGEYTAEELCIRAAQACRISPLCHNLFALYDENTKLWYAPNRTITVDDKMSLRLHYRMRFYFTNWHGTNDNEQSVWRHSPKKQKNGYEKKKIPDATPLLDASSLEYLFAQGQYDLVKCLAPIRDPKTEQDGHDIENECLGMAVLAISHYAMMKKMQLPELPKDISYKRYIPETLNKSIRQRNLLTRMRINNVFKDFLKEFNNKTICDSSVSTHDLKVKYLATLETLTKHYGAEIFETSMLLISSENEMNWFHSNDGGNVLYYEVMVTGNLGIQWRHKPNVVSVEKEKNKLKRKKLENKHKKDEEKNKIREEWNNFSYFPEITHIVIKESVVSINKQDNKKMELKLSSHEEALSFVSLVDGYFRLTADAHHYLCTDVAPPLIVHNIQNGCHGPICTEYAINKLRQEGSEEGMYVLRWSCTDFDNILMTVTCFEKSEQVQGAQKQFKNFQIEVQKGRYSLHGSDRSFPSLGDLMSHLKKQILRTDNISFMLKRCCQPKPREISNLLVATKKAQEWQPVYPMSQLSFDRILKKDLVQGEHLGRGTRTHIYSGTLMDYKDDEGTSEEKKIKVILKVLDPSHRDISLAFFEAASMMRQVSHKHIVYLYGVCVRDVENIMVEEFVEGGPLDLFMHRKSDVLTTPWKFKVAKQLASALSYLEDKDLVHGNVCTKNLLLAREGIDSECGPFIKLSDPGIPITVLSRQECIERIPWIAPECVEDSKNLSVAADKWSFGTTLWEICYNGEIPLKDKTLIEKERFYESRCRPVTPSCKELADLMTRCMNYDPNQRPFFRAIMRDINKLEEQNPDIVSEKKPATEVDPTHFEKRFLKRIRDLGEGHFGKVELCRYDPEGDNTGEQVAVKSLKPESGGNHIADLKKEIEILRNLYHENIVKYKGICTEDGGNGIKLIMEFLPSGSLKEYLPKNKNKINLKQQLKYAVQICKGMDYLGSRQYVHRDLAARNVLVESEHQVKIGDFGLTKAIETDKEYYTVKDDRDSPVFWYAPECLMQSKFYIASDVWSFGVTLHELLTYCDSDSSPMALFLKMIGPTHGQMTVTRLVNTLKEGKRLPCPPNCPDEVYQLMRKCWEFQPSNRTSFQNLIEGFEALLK

Row | Compound | inhibition [1] | inhibition [2] | inhibition [3] | inhibition [4] | inhibition [5] | inhibition [6] | inhibition [7] | inhibition [8]
1 | CCN1CCN(Cc2ccc(NC(=O)c3ccc(C)c(/C=C/c4cnc5[nH]ccc5c4OC)c3)cc2C(F)(F)F)CC1 | 69.2% | 11.8% | 14.1% | 6.4% | -9.8% | -3.3% | 63.7% | -9.9%
2 | CCN1CCN(Cc2ccc(NC(=O)c3ccc(C)c(Oc4ccnc5[nH]ccc45)c3)cc2C(F)(F)F)CC1 | 95.4% | -4.8% | 3.5% | 12.6% | -3.5% | 14.3% | 69.8% | 3.1%
